# Data from US6670382B2, “Hydroxyformamidine derivatives and medicines containing the same” (Taisho Pharmaceutical Co., Ltd., priority 2000, dated 2003).
# Columns and labels:
# [1] = tested on: 20-HETE synthase derived from rat kidney microsome; assay: Inhibitory effect of 20-HETE synthase derived from rat kidney microsome; assay type: biochemical; conditions: SHR rat kidney microsome; for IC50: concentration at which 20-HETE production was inhibited to 50%; for Inhibition (1 µM): inhibition rate of 20-HETE production, subject compound 1 μM, 3H-arachidonic acid, NADPH, 1.5 hours at 37° C., pH 7.4
# Protocol: [Inhibitory Effect of 20-HETE Synthase Derived from Rat Kidney Microsome]
# Regarding the compounds listed in the Table described above, their inhibitory activities on production of 20-HETE were examined.
# This examination was carried out based on the method described in J. Pharmacol. Exp. Ther., Vol. 268, p. 474 (1994).
# The subject compound in an amount of 1 μM was added to a 50 mM of 3-morpholinopropanesulfonic acid buffer (MOPS) (pH 7.4), containing 5 mM of magnesium chloride, and 1 mM of ethylenediaminetetraacetic acid (EDTA) disodium salt.
# Subsequently, the rat kidney microsome fraction prepared from the kidney of a spontaneously hypertensive rat (male, 6 weeks of age) as an enzyme, [5,6,8,9,11,12,14,15] tritium-arachidonic acid (supplied by Amasham) as a substrate, and NADPH (supplied by Sigma) as a coenzyme were added, and were reacted for 1.5 hours at 37° C.
# After the reaction was quenched by adding formic acid (supplied by Wako Pure Chemical Industries Ltd.) to the reaction solution, acetonitrile (final concentration of 50%) was added thereto, and the mixture was allowed to stand for 1.5 hours at room temperature. The amount of 20-HETE production was measured by using a high performance liquid chromatography having a detector for radioactive substances (supplied by Gilson), equipped with an ODS column (Biocyl C18, supplied by Bio-rad).
# Setting an amount of 20-HETE production to 100% when no subject compound was added, the inhibition rate (%) was calculated from the amount of 20-HETE production when a subject compound was added.
# In addition, setting an amount of 20-HETE production to 100% when no subject compound was added, the concentration of the subject compound at which the production of the 20-HETE was inhibited to 50% when the subject compound is added (IC50 value) was also calculated.
IC50 [1] [nM],melting point [°C],Structure (SMILES),Inhibition (1 µM) [1] [%]
9.8,151 to 152,CC#CCCOc1ccc(N/C=N/O)cn1 [Comp. 46],89.9
45.4,82 to 84,CC/C=C/COc1ccc(N/C=N/O)cn1 [Comp. 47],99.2
6.8,123 to 125,CC(C)CCOc1ccc(N/C=N/O)cn1 [Comp. 53],108.5
5.9,120 to 122,C=CCCCOc1ccc(N/C=N/O)cn1 [Comp. 54],111.7
,119 to 120,C=CCCOc1ccc(N/C=N/O)cn1 [Comp. 55],87.3
14.7,124.5 to 125.5,C#CCCCOc1ccc(N/C=N/O)cn1 [Comp. 56],102.1
4.4,99 to 100,CCOCCCOc1ccc(N/C=N/O)cn1 [Comp. 59],109.6
13.1,113 to 114.5,CCCCOCCOc1ccc(N/C=N/O)cn1 [Comp. 61],99.8
68.2,155.5 to 157,"CC#CCOc1ccc(N/C=N/O)cn1 [Comp. 65, N-[2-(2-butyn-1-oxy)pyridin-5-yl]-N′-hydroxyformamidine]",86.9
6.5,159.5 to 161,COc1ccccc1CCOc1ccc(N/C=N/O)cn1 [Comp. 69],102.8
59,146.5 to 147.5,COc1ccccc1COc1ccc(N/C=N/O)cn1 [Comp. 72],92.9
6.4,158.5 to 159.5,O/N=C/Nc1ccc(OCc2cc(F)ccc2F)nc1 [Comp. 73],105.0
3.3,164.5 to 165.5,COc1ccc(COc2ccc(N/C=N/O)cn2)cc1 [Comp. 77],100.3
4.2,126 to 127,COc1cccc(COc2ccc(N/C=N/O)cn2)c1 [Comp. 78],100.2
3.9,166.5 to 167.5,O/N=C/Nc1ccc(OCc2ccc(F)cc2)nc1 [Comp. 80],102.9
1.7,166.5 to 167,N#Cc1cccc(COc2ccc(N/C=N/O)cn2)c1 [Comp. 81],104.4
60.1,128.5 to 129,COc1cccc(COc2ccc(N/C=N/O)cn2)c1OC [Comp. 82],104.5
264,186.5 to 187,O/N=C/Nc1ccc(OCC2COCO2)nc1 (stereo not drawn) [Comp. 87],87.0
6.4,140 to 141,O/N=C/Nc1ccc(OCCCn2cccc2)nc1 [Comp. 91],103.0
71.9,111.5 to 112,CSCCOc1ccc(N/C=N/O)cn1 [Comp. 92],87.6

IC50 [1] [nM],melting point [°C],Structure (SMILES),Inhibition (1 µM) [1] [%]
6.6,109 to 111,CSCCCOc1ccc(N/C=N/O)cn1 [Comp. 93],97.4
3.2,153 to 154,O/N=C/Nc1ccc(OCCOc2ccccc2)nc1 [Comp. 94],100.3
140,114 to 115,O/N=C/Nc1ccc(OCC2CCCO2)nc1 (stereo not drawn) [Comp. 96],92.3
58.1,149.5 to 152.5,O/N=C/Nc1ccc(OCC2CCCCO2)nc1 (stereo not drawn) [Comp. 97],85.5
4.3,137.5 to 138.5,O/N=C/Nc1ccc(OCCc2cccs2)nc1 [Comp. 98],100.7
1.9,138 to 140,O/N=C/Nc1ccc(OCCc2ccsc2)nc1 [Comp. 99],95.4
18.2,141 to 142,CC(C)Sc1ccc(N/C=N/O)cn1 [Comp. 102],74.5
,133 to 135,"O/N=C/Nc1ccc(SCc2ccccc2)nc1 [Comp. 104, N-[2-(benzylthio)pyridin-5-yl]-N′-hydroxyformamidine]",103.6
294,115 to 115.5,OCCSc1ccc(N/C=N/O)cn1 [Comp. 107],83.1
11.5,153.5 to 154.5,O/N=C/Nc1ccc(SC2CCCC2)nc1 [Comp. 109],82.1
12.1,140.5 to 141.5,O/N=C/Nc1ccc(SCc2ccco2)nc1 [Comp. 110],85.7
33.8,125.5 to 127.5,CCC(C)Sc1ccc(N/C=N/O)cn1 (stereo not drawn) [Comp. 111],76.8
435,174.5 to 175,CC(C)(C)Sc1ccc(N/C=N/O)cn1 [Comp. 117],69.3
117,105 to 105.5,OCCCSc1ccc(N/C=N/O)cn1 [Comp. 120],102.0
400,143.5 to 144.5,C#CCOc1ccc(N/C=N/O)cn1 [Comp. 121],99.8
0.6,74 to 76.5,"CN(C)CC(C)(C)COc1ccc(N/C=N/O)cn1 [Comp. 123, N-[2-(3-dimethylamino-2,2-dimethylpropyl-1-oxy)pyridin-5-yl]-N′-hydroxyformamidine]",97.5
330,124.5 to 125.5,CCN(CC)CCSc1ccc(N/C=N/O)cn1 [Comp. 127],
312,131 to 133,CN1CCC(CCOc2ccc(N/C=N/O)cn2)CC1 [Comp. 128],
566,108 to 112,CN(C)CCCOc1ccc(N/C=N/O)cn1 [Comp. 132],
53.6,110 to 111.5,CN(C)CCCCCCOc1ccc(N/C=N/O)cn1 [Comp. 133],

Structure (SMILES),IC50 [1] [nM],melting point [°C],Inhibition (1 µM) [1] [%]
CN1CCCC(COc2ccc(N/C=N/O)cn2)C1 (stereo not drawn) [Comp. 124],142,122 to 124,92.6
